Source: ChEMBL document CHEMBL1131967, “BN 80927: a novel homocamptothecin with inhibitory activities on both topoisomerase I and topoisomerase II” (Bioorg Med Chem Lett, 1999)
pIC50: −log10 of the molar value.

Columns and labels:
Format in all cases: functional, cell-based
DU-145 = test: Antiproliferative activity against human DU145 prostate cell line
MCF7 = test: Antiproliferative activity against human MCF-7 breast cell line
SK-OV-3 = test: Antiproliferative activity against human SKOV-3 ovarian cell line
HT-29 = test: Antiproliferative activity against human HT-29 colon cell line

How did the pIC50 (DU-145) turn out when `COc1cc([C@@H]2c3cc4c(cc3[C@@H](O[C@@H]3O[C@@H]5CO[C@@H](C)O[C@H]5[C@H](O)[C@H]3O)[C@H]3COC(=O)[C@H]23)OCO4)cc(OC)c1O` [ETOPOSIDE] was run?
The pIC50 was 5.89.

What about the pIC50 (MCF7) of the same molecule?
Its pIC50 is 4.00.

And the pIC50 (SK-OV-3)?
Its pIC50 is 5.31.

And the pIC50 (HT-29)?
The pIC50 was 6.70.

How did the pIC50 (DU-145) turn out when `CN(C)CCNC(=O)c1cccc2cc3ccccc3nc12` was run?
Its pIC50 is 5.64.

What about the pIC50 (MCF7) of the same molecule?
The pIC50 was 5.42.

What about the pIC50 (SK-OV-3) of the same molecule?
The pIC50 was 5.62.

What about the pIC50 (HT-29) of the same molecule?
Its pIC50 is less than 5.00.

With `Cc1cnc(NCCCN(C)C)c2c1[nH]c1ccc3cc(O)ccc3c12` [INTOPLICINE] as the molecule, how does the pIC50 (DU-145) read?
Its pIC50 is 6.25.

What about the pIC50 (MCF7) of the same molecule?
Its pIC50 is 6.00.

And the pIC50 (SK-OV-3)?
Its pIC50 is 6.35.

And the pIC50 (HT-29)?
Its pIC50 is 6.05.

`CCc1c2c(nc3ccc(O)cc13)-c1cc3c(c(=O)n1C2)COC(=O)[C@]3(O)CC` [7-ETHYL-10-HYDROXYCAMPTOTHECIN] was tested. Which pIC50 (DU-145) did it give?
Its pIC50 is 7.89.

And the pIC50 (MCF7)?
The pIC50 was 6.43.

What about the pIC50 (SK-OV-3) of the same molecule?
The pIC50 was 6.14.

What about the pIC50 (HT-29) of the same molecule?
The pIC50 was 7.66.
